# From patent US12472185B2, “Methods for killing antibiotic tolerant bacteria” (THE PENN STATE RESEARCH FOUNDATION, priority 2020, dated 2025)
# Experiments:
# human cancer HT-29 cells = assay: Viability (CCK-8) and cytotoxicity (LDH) assays; assay type: cell-based; details: 24 hr
# Procedure: FIG. 11. Cytotoxicity of NPIMA with HT-29 cells. (A) Cell viability was measured via a CCK-8 assay. (B) Cytotoxicity was measured with various concentrations of NPIMA […] for 24 h. Cell viability was measured at 450 nm, and cell toxicity was measured at 492 nm and a reference wavelength ([…]) was used.
# For bacterial viability, cells were washed twice with 0.85% NaCl, resuspended in 1×PBS, and cell counts were determined via the drop assay (Donegan, Matyac, Seidler, & Porteous, 1991). For human cell viability, pre-cultured human cancer HT-29 cells were dispensed in 98 μl in 96-well plates with approximately 5,000 cells/well. NPIMA was added (2 μl) to produce concentrations of 5, 10, 100, and 200 μM. For controls, Triton X-100 (positive control) and DMSO (negative solvent control), were used, and the medium was used for background. Plates were incubated in a humidified incubator (37° C., 5% CO2) for 24 hr. Cell viability was determined via a cell counting kit (CCK-8 Kit, ab228554; Abcam), and cytotoxicity was determined via the lactate dehydrogenase (LDH) assay (LDH Assay Kit, MK401; Takara).
# P. aeruginosa = assay: Lysis assays (total protein and DNA in supernatants); assay type: cell-based, Pseudomonas aeruginosa; details: 100 μM, 1 hr
# Procedure: (§1) FIG. 5. NPIMA lyses Escherichia coli, Pseudomonas aeruginosa, and Staphylococcus aureus. Total protein (a) and DNA (b) found in supernatants as evidence of cell lysis after treatment of cells at a turbidity of 0.8 at 600 nm with 100 μM NPIMA after 1 hr for E. coli and P. aeruginosa and 6 hr for S. aureus. NPIMA, 5-nitro-3-phenyl-1H-indol-2-yl-methylamine hydrochloride.
# (§2) Exponentially-growing E. coli BW25113 cells (turbidity 0.8 at 600 nm) were washed twice with 0.85% NaCl, resuspended in 1 ml of 1×PBS, and NPIMA (100 μM) was added for 1 hr for E. coli and P. aeruginosa and 6 hr for S. aureus with shaking at 250 rpm (0.1% DMSO was used as the negative control). Cell supernatants were collected after centrifuging at 6,500 g (4° C. for 15 min), and total protein was measured by the Bicinchoninic Acid (BCA) protein assay Kit (Prod #23227; Pierce). DNA in the supernatant (199 μl) was detected by adding 1 μl of Picogreen (P7589; Invitrogen) and incubating for 5 min at room temperature in the dark room. The fluorescence signal was read by a Tecan microplate reader (Infinite M200PRO) with 480 nm excitation and 520 nm emission by utilizing a calibration curved made with plasmid pEX18Ap at 0, 0.004, 0.008, 0.016, 0.063, 0.125, 0.25, and 0.5 ng/μl.
# E. coli BW25113 [1] = assay: Transmission electron microscopy (TEM); assay type: cell-based, Escherichia coli; details: 100 μM
# Procedure: FIG. 6. NPIMA damages the Escherichia coli cell membrane. Transmission electron microscopic (TEM) images of E. coli BW25113 after NPIMA (100 μM) treatment for 40 min. Two representative images are shown. The arrow indicates membrane damage. NPIMA, 5-nitro-3-phenyl-1H-indol-2-ylmethylamine hydrochloride.
# For transmission electron microscopy (TEM), E. coli BW25113 was grown to a turbidity of 0.8 at OD600, contacted with NPIMA at 100 μM for 0.75 hr in PBS, centrifuged at 8000 g, and resuspended in PBS. The samples were fixed with buffer (2.5% glutaraldehyde in 0.1M cacodylate buffer, pH 7.4) and negative stained with 2% uranyl acetate in the dark for 1 hr, then dehydrated. The sectioned specimens were stained again with uranyl acetate and lead citrate after dehydration and resin embedded. TEM images were obtained using a JEOL JEM 1200 EXII instrument.
# E. coli BW25113 [2] = assay: Lysis assays (total protein and DNA in supernatants); assay type: cell-based, Escherichia coli; details: 100 μM, 1 hr
# Procedure: as §1, §2
# E. coli persister cells = assay: ChemBridge screen for persister cell killing; assay type: cell-based, Escherichia coli; details: 100 μM, 24 hr
# Procedure: FIG. 1. […] Escherichia coli persister cells were treated for 24 hr at 100 μM with: • 1: N-(3,4-dichlorophenyl)-N′-(3-fluorophenyl) thiourea; • 2: 2-({2-[(4-bromophenyl)amino]-4-quinazolinyl}amino)ethanol hydrochloride; • 3: 2-[(6-phenyl-2,3,4,9-tetrahydro-1H-carbazol-1-yl)amino] ethanol; • 4: 1-(3,6-dichloro-9H-carbazol-9-yl)-3-(2-methyl-1H-imidazol-1-yl)-2-propanol; • 5: N-[2-(4-fluorophenyl)ethyl]-N′-(4-nitrophenyl) thiourea; • 6: N-(4-chlorobenzyl)-N′-4-pyridinylthiourea; • 7: N′-(3,5-dichloro-2-hydroxybenzylidene)-2-oxo-4-phenyl-3-pyrrolidinecarbohydrazide; and • 8: [(5-nitro-3-phenyl-1H-indol-2-yl)methyl]amine hydrochloride (NPIMA, structure shown in inset).
# To identify compounds that kill E. coli persister cells, 10,000 compounds of the DIVERset Library from ChemBridge (San Diego, CA) were tested by adding 4 μl of each (in DMSO, final concentration 100 μM) to 186 μl of LB in 96-well plates along with 10 μl of persister cells; the persister cells were added after the ChemBridge chemical since LB wakes persister cells (Kim, Yamasaki, et al., 2018). For the negative control, pure DMSO (final concentration 2 vol %) was used. The degree of inhibition was determined by the change in turbidity at 600 nm after 24 hr. The best 26 compounds were re-tested with the same conditions.
# To screen directly for killing persister cells, a high-throughput approach using 96-well microtiter plates was devised that consisted of (a) washing persister cells formed from exponentially-growing cells using rifampicin pretreatment followed by ampicillin treatment, (b) adding 10 μl of the persister cells to 190 μl of LB containing one each of the 10,000 compounds of the DiverSet library dissolved in dimethyl sulfoxide (100 μM final concentration), and (c) monitoring for growth via change in turbidity for 24 hr. With this approach, we allowed for up to a 140-fold change in turbidity (0.005 could be increased to 0.69).
structure (smiles),measurement,setting,value
"Cl.NCc1[nH]c2ccc([N+](=O)[O-])cc2c1-c1ccccc1 [NPIMA, [(5-nitro-3-phenyl-1H-indol-2-yl)methyl]amine hydrochloride]",toxicity (LDH and CCK-8),human cancer HT-29 cells; 5 μM,not toxic
same,toxicity (LDH and CCK-8),human cancer HT-29 cells; 10 μM,not toxic
same,concentrations showing toxicity in both tests,human cancer HT-29 cells,≥ 50 µM
same,increase in DNA released compared to DMSO alone,P. aeruginosa,1.19±0.09 fold
same,total protein released compared to DMSO alone,P. aeruginosa,4.0±0.4 fold
same,cell envelope damage by TEM,E. coli BW25113 [1],clear cell envelope damage
same,increase in DNA in the supernatants compared to DMSO alone,E. coli BW25113 [2],3.8±0.8
same,increase in total cell protein in supernatants compared to DMSO alone,E. coli BW25113 [2],10±2
same,change of turbidity during first and second screen,E. coli persister cells,reduced the turbidity
same,"persister killing, second screen (FIG. 1)",E. coli persister cells; hydrochloride,substantially more effective than the other compounds
same,"persister killing, second screen (FIG. 1)","E. coli persister cells; listed as 8, hydrochloride",Most effective
